We go through eleven molecules from patent US20240116985A1, “STAPLED PEPTIDES AND METHODS THEREOF” (priority 2020, published 2024).

For test [1], the target named is T1, beta-catenin/TCF4 engagement (Homo sapiens, UniProt P35222).
T1 construct: expressed in transfected cells; host or cells: HEK293
T1 sequence (P35222 1-781): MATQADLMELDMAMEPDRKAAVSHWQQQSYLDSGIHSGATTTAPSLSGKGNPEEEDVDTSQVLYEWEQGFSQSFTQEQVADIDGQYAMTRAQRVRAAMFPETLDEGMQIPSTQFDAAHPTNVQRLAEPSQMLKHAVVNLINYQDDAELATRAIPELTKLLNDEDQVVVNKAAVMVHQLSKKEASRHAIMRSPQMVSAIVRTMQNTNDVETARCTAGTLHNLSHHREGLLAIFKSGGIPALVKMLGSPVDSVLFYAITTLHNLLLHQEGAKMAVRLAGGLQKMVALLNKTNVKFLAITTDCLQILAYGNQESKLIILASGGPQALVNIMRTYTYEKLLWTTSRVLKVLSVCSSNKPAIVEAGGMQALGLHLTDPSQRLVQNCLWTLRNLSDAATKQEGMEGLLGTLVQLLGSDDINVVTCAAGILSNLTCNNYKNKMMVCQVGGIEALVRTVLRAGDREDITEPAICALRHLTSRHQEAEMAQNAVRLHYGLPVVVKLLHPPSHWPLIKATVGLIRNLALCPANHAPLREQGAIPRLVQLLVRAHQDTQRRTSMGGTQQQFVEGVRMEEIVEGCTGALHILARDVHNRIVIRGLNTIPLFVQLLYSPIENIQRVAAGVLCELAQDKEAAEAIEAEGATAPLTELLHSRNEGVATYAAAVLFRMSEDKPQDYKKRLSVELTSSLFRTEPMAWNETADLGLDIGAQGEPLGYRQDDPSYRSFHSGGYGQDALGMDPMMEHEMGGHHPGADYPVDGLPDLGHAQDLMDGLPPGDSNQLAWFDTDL
The experiment in a line: Nano-BRET target engagement assay (B-cat-Halo & TCF4-Luc in HEK293 cells). The class given is cell-based. Particulars: absolute IC50; read-out: NanoBRET Abs IC50. (In general: BRET reads energy transfer from a luciferase to a nearby fluorophore.)

Test [2] has as its target T2, full-length beta-Catenin (Uniprot ID P35222) (Homo sapiens, UniProt P35222).
T2 construct: 10 nM full-length beta-Catenin (Uniprot ID P35222)
T2 sequence (P35222 1-781): T1 sequence (P35222 1-781)
Put plainly: Fluorescence polarization IC50 (beta-catenin / 5FAM-TCF4 10-53 competition). The class given is binding. Particulars: fluorescence polarization; read-out: beta-Catenin FP IC50. On the technique in general: In fluorescence polarisation assays a small probe gives low polarisation when free and higher when bound to something large.

One may read the IC50 as the concentration that inhibits the measured activity by half. On to `CC(=O)N1CCC[C@]12CC=CCCCC1(CCCC=CCCCOC(=O)N3CC[C@@](C(=O)N[C@@H](Cc4ccccc4Cl)C(=O)N[C@@H](Cc4csc5ccccc45)C(=O)N[C@@H](CCC(N)=O)C(N)=O)(C3)NC(=O)[C@H](CC(C)C)NC(=O)[C@H](Cc3ccccc3)NC(=O)CNC(=O)[C@H](C)NC(=O)[C@H](Cc3cccc(C(=O)O)c3)NC(=O)[C@H](CC(=O)O)NC1=O)NC(=O)[C@H](CC(C)(C)C)NC(=O)[C@H](CC(=O)O)NC2=O` (stereo partly drawn) [I-1687, Ac-PL3-Asp-Npg-B5-Asp-3COOHF-Ala-Gly-Phe-Leu-PyrS2-2C1F-BztA-Gln-NH2], for which the figures for the half-inhibitory concentration (IC50) in test [1] and in test [2] were 18600 nM and 42 nM, respectively.

Consider `CCCC[C@@H]1NC(=O)[C@H](Cc2cccc(C(=O)O)c2)NC(=O)[C@H](CC(=O)O)NC(=O)C2(CCCC=CCCCOC(=O)N3CC[C@@](C(=O)N[C@@H](Cc4ccccc4Cl)C(=O)N[C@@H](Cc4csc5ccccc45)C(=O)N[C@@H](CCC(N)=O)C(N)=O)(C3)NC(=O)[C@H](CC(C)C)NC(=O)[C@H](Cc3ccccc3)NC(=O)CNC1=O)CCCC=CC[C@]1(CCCN1C(C)=O)C(=O)N[C@@H](CC(=O)O)C(=O)N[C@@H](CC(C)(C)C)C(=O)N2` (stereo partly drawn) [I-1688, Ac-PL3-Asp-Npg-B5-Asp-3COOHF-nLeu-Gly-Phe-Leu-PyrS2-2C1F-BztA-Gln-NH2], for which the IC50 in test [1] stood at 21500 nM; in test [2] it was 59 nM.

Regarding `CC(=O)N1CCC[C@]12CC=CCCCC1(CCCC=CCCCOC(=O)N3CC[C@@](C(=O)N[C@@H](Cc4ccccc4Cl)C(=O)N[C@@H](Cc4csc5ccccc45)C(=O)N[C@@H](CCC(N)=O)C(N)=O)(C3)NC(=O)[C@H](CC(C)C)NC(=O)[C@H](Cc3ccccc3)NC(=O)CNC(=O)C(C)(C)NC(=O)[C@H](Cc3cccc(C(=O)O)c3)NC(=O)[C@H](CC(=O)O)NC1=O)NC(=O)[C@H](CC(C)(C)C)NC(=O)[C@H](CC(=O)O)NC2=O` (stereo partly drawn) [I-1689, Ac-PL3-Asp-Npg-B5-Asp-3COOHF-Aib-Gly-Phe-Leu-PyrS2-2C1F-BztA-Gln-NH2], the half-inhibitory concentration (IC50) in test [1] amounted to 12500 nM; in test [2], 25.5 nM.

For the molecule `CC(=O)N1CCC[C@]12CC=CCCCC1(CCCC=CCCCOC(=O)N3CC[C@@](C(=O)N[C@@H](Cc4ccccc4Cl)C(=O)N[C@@H](Cc4csc5ccccc45)C(=O)N[C@@H](CCC(N)=O)C(N)=O)(C3)NC(=O)[C@H]([C@@H](C)O)NC(=O)[C@H](Cc3ccccc3)NC(=O)[C@H](C)NC(=O)CNC(=O)[C@H](CN(CC(=O)O)CC(F)(F)F)NC(=O)[C@H](CC(=O)O)NC1=O)NC(=O)[C@H](CC(C)(C)C)NC(=O)[C@H](CC(=O)O)NC2=O` (stereo partly drawn) [I-1691, Ac-PL3-Asp-Npg-B5-Asp-TfeGA-Gly-Ala-Phe-Thr-PyrS2-2C1F-BztA-Gln-NH2], the half-maximal inhibitory concentration (IC50) in test [1] was determined as 12800 nM; in test [2], 11 nM.

As to `CCCC[C@@H]1NC(=O)[C@H](CN(CC(=O)O)CC(F)(F)F)NC(=O)[C@H](CC(=O)O)NC(=O)C2(CCCC=CCCCOC(=O)N3CC[C@@](C(=O)N[C@@H](Cc4ccccc4Cl)C(=O)N[C@@H](Cc4csc5ccccc45)C(=O)N[C@@H](CCC(N)=O)C(N)=O)(C3)NC(=O)[C@H]([C@@H](C)O)NC(=O)[C@H](Cc3ccccc3)NC(=O)[C@H](C)NC1=O)CCCC=CC[C@]1(CCCN1C(C)=O)C(=O)N[C@@H](CC(=O)O)C(=O)N[C@@H](CC(C)(C)C)C(=O)N2` (stereo partly drawn) [I-1692, Ac-PL3-Asp-Npg-B5-Asp-TfeGA-nLeu-Ala-Phe-Thr-PyrS2-2C1F-BztA-Gln-NH2], the IC50 is 10400 nM in test [1] and 17 nM in test [2].

Turning to `CC(=O)N1CCC[C@]12CC=CCCCC1(CCCC=CCCCOC(=O)N3CC[C@@](C(=O)N[C@@H](Cc4ccccc4Cl)C(=O)N[C@@H](Cc4csc5ccccc45)C(=O)N[C@@H](CCC(N)=O)C(N)=O)(C3)NC(=O)[C@H]([C@@H](C)O)NC(=O)[C@H](Cc3ccccc3)NC(=O)[C@H](C)NC(=O)C(C)(C)NC(=O)[C@H](CN(CC(=O)O)CC(F)(F)F)NC(=O)[C@H](CC(=O)O)NC1=O)NC(=O)[C@H](CC(C)(C)C)NC(=O)[C@H](CC(=O)O)NC2=O` (stereo partly drawn) [I-1693, Ac-PL3-Asp-Npg-B5-Asp-TfeGA-Aib-Ala-Phe-Thr-PyrS2-2C1F-BztA-Gln-NH2], the IC50 was 4600 nM in test [1] and 10 nM in test [2].

In the case of `CC(=O)N1CCC[C@]12CC=CCCCC1(CCCC=CCCCOC(=O)N3CC[C@@](C(=O)N[C@@H](Cc4ccccc4Cl)C(=O)N[C@@H](Cc4csc5ccccc45)C(=O)N[C@@H](CCC(N)=O)C(N)=O)(C3)NC(=O)[C@H]([C@@H](C)O)NC(=O)[C@H](Cc3ccccc3)NC(=O)CNC(=O)[C@H](C)NC(=O)[C@H](CN(CC(=O)O)CC(F)(F)F)NC(=O)[C@H](CC(=O)O)NC1=O)NC(=O)[C@H](CC(C)(C)C)NC(=O)[C@H](CC(=O)O)NC2=O` (stereo partly drawn) [I-1694, Ac-PL3-Asp-Npg-B5-Asp-TfeGA-Ala-Gly-Phe-Thr-PyrS2-2C1F-BztA-Gln-NH2], the results for the 50% inhibitory concentration (IC50) in test [1] and in test [2] were 43600 nM and 57 nM, respectively.

With `CCCC[C@@H]1NC(=O)[C@H](CN(CC(=O)O)CC(F)(F)F)NC(=O)[C@H](CC(=O)O)NC(=O)C2(CCCC=CCCCOC(=O)N3CC[C@@](C(=O)N[C@@H](Cc4ccccc4Cl)C(=O)N[C@@H](Cc4csc5ccccc45)C(=O)N[C@@H](CCC(N)=O)C(N)=O)(C3)NC(=O)[C@H]([C@@H](C)O)NC(=O)[C@H](Cc3ccccc3)NC(=O)CNC1=O)CCCC=CC[C@]1(CCCN1C(C)=O)C(=O)N[C@@H](CC(=O)O)C(=O)N[C@@H](CC(C)(C)C)C(=O)N2` (stereo partly drawn) [I-1695, Ac-PL3-Asp-Npg-B5-Asp-TfeGA-nLeu-Gly-Phe-Thr-PyrS2-2C1F-BztA-Gln-NH2], the figures for the IC50 in test [1] and in test [2] were above 20000 nM and 93 nM, respectively.

In the case of `CC(=O)N1CCC[C@]12CC=CCCCC1(CCCC=CCCCOC(=O)N3CC[C@@](C(=O)N[C@@H](Cc4ccccc4Cl)C(=O)N[C@@H](Cc4csc5ccccc45)C(=O)N[C@@H](CCC(N)=O)C(N)=O)(C3)NC(=O)[C@H]([C@@H](C)O)NC(=O)[C@H](Cc3ccccc3)NC(=O)CNC(=O)C(C)(C)NC(=O)[C@H](CN(CC(=O)O)CC(F)(F)F)NC(=O)[C@H](CC(=O)O)NC1=O)NC(=O)[C@H](CC(C)(C)C)NC(=O)[C@H](CC(=O)O)NC2=O` (stereo partly drawn) [I-1696, Ac-PL3-Asp-Npg-B5-Asp-TfeGA-Aib-Gly-Phe-Thr-PyrS2-2C1F-BztA-Gln-NH2], the IC50 in test [1] amounted to 35500 nM; in test [2] it was 32 nM.

For `CC(=O)N1CCC[C@]12CCCCCCC1(CCCCCCCCCOC(=O)N3CC[C@@](C(=O)N[C@@H](Cc4ccsc4)C(=O)N[C@@H](Cc4csc5ccccc45)C(=O)N[C@@H](CCC(N)=O)C(N)=O)(C3)NC(=O)[C@H](CC(C)C)NC(=O)[C@H](Cc3ccccc3)NC(=O)[C@H](C)NC(=O)[C@H](C)NC(=O)[C@H](CN(CC(=O)O)CC(F)(F)F)NC(=O)[C@H](CC(=O)O)NC1=O)NC(=O)[C@H](CC(C)(C)C)NC(=O)[C@H](CC(=O)O)NC2=O` (stereo partly drawn) [I-1697, Ac-PL3-Asp-Npg-B5-Asp-TfeGA-Ala-Ala-Phe-Leu-PyrS3-3Thi-BztA-Gln-NH2], the IC50 was above 20000 nM in test [1] and 179 nM in test [2].

Turning to `CC(=O)N1CCC[C@]12CCCCCCC1(CCCCCCCCCCC[C@@](C)(C(=O)N[C@@H](Cc3ccsc3)C(=O)N[C@@H](Cc3csc4ccccc34)C(=O)N[C@@H](CCC(N)=O)C(N)=O)NC(=O)[C@H](CC(C)C)NC(=O)[C@H](Cc3ccccc3)NC(=O)[C@H](C)NC(=O)[C@H](C)NC(=O)[C@H](CN(CC(=O)O)CC(F)(F)F)NC(=O)[C@H](CC(=O)O)NC1=O)NC(=O)[C@H](CC(C)(C)C)NC(=O)[C@H](CC(=O)O)NC2=O` (stereo partly drawn) [I-1698, Ac-PL3-Asp-Npg-B5-Asp-TfeGA-Ala-Ala-Phe-Leu-S8-3Thi-BztA-Gln-NH2], the IC50 in test [1] is above 20000 nM; in test [2], 165 nM.
